Square brackets hold non-standard residues; d marks the D form. Peptide text beside a SMILES is read from it. d(hArg(Et2)) = CCN=C(NCC)NCCCC[C@@H](N)C(=O)O; hArg(Et2) = CCN=C(NCC)NCCCC[C@H](N)C(=O)O; dPhe(4-Cl) = N[C@H](Cc1ccc(Cl)cc1)C(=O)O; d2Nal = N[C@H](Cc1ccc2ccccc2c1)C(=O)O; d3Pal = N[C@H](Cc1cccnc1)C(=O)O
Tests used:
[1] = system: pituitary-gonadal axis; settings: cited from earlier work
[2] = system: premature LH surges; assay: phase II double-blind dose-finding study of ganirelix in women undergoing controlled ovarian hyperstimulation with recFSH; assay type: in vivo, human
Protocol: In order to establish the minimum effective dose of ganirelix to prevent premature LH surges in women undergoing COH with recombinant FSH, a double-blind dose-finding study was performed with 6 test doses ranging between 2 mg and 0.0625 mg ganirelix.
This study was a phase II, multi-centre, double-blind, randomized, dose-finding study to assess the efficacy of the GnRH-antagonist ganirelix to prevent premature LH surges in women undergoing controlled ovarian hyperstimulation with recFSH. The dosages of ganirelix are administered by one daily SC administration.
RecFSH treatment started on day 2 of the menstrual cycle (treatment day -5) by a once daily SC injection. From treatment day -5 through day -1 the dose of recFSH was fixed at 150 IU daily. After 5 days of recFSH treatment (day 7 of the menstrual cycle), ganirelix treatment was started by daily SC administration. Treatment continued until and including the last day of recFSH administration. During ganirelix treatment, the dose of recFSH was adjusted depending on the individual ovarian response as assessed by daily ultra sonographic scan (USS). As soon as at least 3 folicles ≧17 mm measured by USS were observed, hCG was administered for ovulation induction. About 30-36 hours thereafter oocyte pick-up was performed followed by in vitro fertilization (IVF) with or without intracytoplasmic sperm injection (ICSI). No more than 3 embryos were replaced.
If during ganirelix treatment a premature LH rise occurred e.g. at least one value of serum LH ≧15 IU/L according to the local LH immunoassay the investigator canceled the cycle or tried to rescue the cycle by giving hCG prematurely. In addition, the investigator notified the sponsor about the occurrence of the LH rise and the central laboratory was requested to confirm the LH rise was ≧10 IU/L according to the central LH immunoassay. Subsequently, all data of such subject with a premature LH rise were forwarded to an Independent Advisory Committee which was installed in order to advice on stopping a treatment arm in case of LH rises during ganirelix treatment.
During the study, some investigators informed the sponsor on one or more cases of extremely low serum LH and failing estradiol concentrations as well as follicle growth arrest after starting ganirelix treatment. For this reason the External Independent Advisory Committee was requested to review all clinical data available in order to evaluate whether these observations were dose related and whether, in their opinion, there was reason to stop one or more treatment arms.
In addition, the Independent Advisory Committee reviewed all rises of LH (≧15 IU/L according to the local LH immunoassay and ≧10 IU/L according to the central LH immunoassay) during ganirelix treatment. Based on their evaluation the External Committee advised the sponsor to stop the highest (2 mg) and lowest (0.0625 mg) treatment dose of ganirelix. The study was completed for the other dosage groups.
In total 333 subjects started recFSH treatment and 332 subjects started ganirelix treatment. Because of major protocol violation 3 subjects were excluded from the analysis. The final number of patients per dosing group are included in Table 1.

Serum ganirelix concentration versus dose ([2]; 0.0625 mg to 2 mg daily SC): increased in a dose-proportional manner
miscarriage rate ([2]; 2 mg dose group): 13%
SMILES: CCN=C(NCC)NCCCC[C@H](NC(=O)[C@H](CC(C)C)NC(=O)[C@@H](CCCCNC(=NCC)NCC)NC(=O)[C@H](Cc1ccc(O)cc1)NC(=O)[C@H](CO)NC(=O)[C@@H](Cc1cccnc1)NC(=O)[C@@H](Cc1ccc(Cl)cc1)NC(=O)[C@@H](Cc1ccc2ccccc2c1)NC(C)=O)C(=O)N1CCC[C@H]1C(=O)N[C@H](C)C(N)=O [ganirelix, N-Acetyl-3-(2-naphtyl)-D-alanyl-4-chloro-D-phenylalanyl-3-(3-pyridyl)-D-alanyl-L-seryl-L-tyrosyl-N^ω,N^ω-diethyl-D-homoarginyl-L-leucin-N^ω,N^ω-diethyl-Lhomoarginyl-L-propyl-D-alanylamide acetate] (Ac-[d2Nal][dPhe(4-Cl)][d3Pal]SY[d(hArg(Et2))]L[hArg(Et2)]P[dA]-NH2)
suppression of the pituitary-gonadal axis ([1]; 1 mg or 2 mg daily SC for 8 consecutive days, reproductive age women): rapid, profound, reversible suppression
maximal mean LH suppression ([1]; 8 h after the first injection, 1 mg or 2 mg daily SC): approximately 60%
Median serum E2 (estradiol) at the day of hCG (= last day of ganirelix) ([2]; 0.0625 mg daily SC): 1475 pg/mL
Median serum LH at the day of hCG (= last day of ganirelix) ([2]; 0.0625 mg daily SC): 3.56 IU/L
Incidence of LH rises ([2]; 0.0625 mg daily SC, N = 31, number of subjects (%)): 5 (16%)
Median serum E2 (estradiol) at the day of hCG (= last day of ganirelix) ([2]; 0.125 mg daily SC): 1130 pg/mL
Median serum LH at the day of hCG (= last day of ganirelix) ([2]; 0.125 mg daily SC): 2.46 IU/L
Incidence of LH rises ([2]; 0.125 mg daily SC, N = 65, number of subjects (%)): 6 (9.2%)
Median serum E2 (estradiol) at the day of hCG (= last day of ganirelix) ([2]; 0.25 mg daily SC): 1160 pg/mL
Median serum LH at the day of hCG (= last day of ganirelix) ([2]; 0.25 mg daily SC): 1.73 IU/L
Incidence of LH rises ([2]; 0.25 mg daily SC, N = 69, number of subjects (%)): 1 (1.4%)
Median serum E2 (estradiol) at the day of hCG (= last day of ganirelix) ([2]; 0.5 mg daily SC): 823 pg/mL
Median serum LH at the day of hCG (= last day of ganirelix) ([2]; 0.5 mg daily SC): 1.02 IU/L
Incidence of LH rises ([2]; 0.5 mg daily SC, N = 69, number of subjects): 0
Median serum E2 (estradiol) at the day of hCG (= last day of ganirelix) ([2]; 1 mg daily SC): 703 pg/mL
Median serum LH at the day of hCG (= last day of ganirelix) ([2]; 1 mg daily SC): 0.57 IU/L
Incidence of LH rises ([2]; 1 mg daily SC, N = 65, number of subjects): 0
Median serum E2 (estradiol) at the day of hCG (= last day of ganirelix) ([2]; 2 mg daily SC): 430 pg/mL
Median serum LH at the day of hCG (= last day of ganirelix) ([2]; 2 mg daily SC): 0.34 IU/L
Incidence of LH rises ([2]; 2 mg daily SC, N = 30, number of subjects): 0
vital pregnancy rate per attempt ([2]; 2 mg dose group, per attempt (those who started hormonal treatment)): 3.8%
vital pregnancy rate per transfer ([2]; 2 mg dose group, per transfer (those who had embryo transfer)): 4.3%

Source: patent US6653286B1, “Gonadotropin releasing hormone antagonist” (Akzo Nobel NV, priority 1997, dated 2003)
